In ChEMBL document CHEMBL3044981, “Production and optimization of oxytetracycline by a new isolate Streptomyces rimosus using response surface methodology” (2012):
≈ marks a conversion by molar mass, not a printed value.

Assays:
Type in all cases: functional
Pseudomonas aeruginosa = assay: Antibacterial activity against multidrug-resistant Pseudomonas aeruginosa by broth dilution method
Klebsiella pneumoniae = assay: Antibacterial activity against multidrug-resistant Klebsiella pneumoniae MTCC 2405 by broth dilution method
Proteus vulgaris = assay: Antibacterial activity against multidrug-resistant Proteus vulgaris MTCC 1771 by broth dilution method
Escherichia coli = assay: Antibacterial activity against multidrug-resistant Escherichia coli MTCC 1667 by broth dilution method
Salmonella typhi = assay: Antibacterial activity against multidrug-resistant Salmonella enterica subsp. enterica serovar Typhi MTCC 734 by broth dilution method
[1] = test system: Staphylococcus epidermidis; assay: Antibacterial activity against multidrug-resistant Staphylococcus epidermidis MTCC 435 by broth dilution method
Staphylococcus aureus = assay: Antibacterial activity against multidrug-resistant Staphylococcus aureus MTCC 737 by broth dilution method

Question: Which results are given for CN(C)[C@@H]1C(O)=C(C(N)=O)C(=O)[C@@]2(O)C(O)=C3C(=O)c4c(O)cccc4[C@@](C)(O)[C@H]3[C@H](O)[C@@H]12 [OXYTETRACYCLINE]?
Answer: MIC (Pseudomonas aeruginosa): 12.5 µg/mL (≈ 27.1 µM); MIC (Klebsiella pneumoniae): 12.5 µg/mL (≈ 27.1 µM); MIC (Proteus vulgaris): 12.5 µg/mL (≈ 27.1 µM); MIC (Escherichia coli): 6.25 µg/mL (≈ 13.6 µM); MIC (Salmonella typhi): 3 µg/mL (≈ 6.52 µM); MIC [1]: 3 µg/mL (≈ 6.52 µM); MIC (Staphylococcus aureus): 3 µg/mL (≈ 6.52 µM)
